Test results taken from US9458113B2 (Boehringer Ingelheim International GmbH, priority 2014, dated 2016).
Values after ≈ are worked out from the molar mass of the structure shown.

Key:
[1] = biological target: neutrophil elastase in zymosan-stimulated human plasma (Homo sapiens (Human), UniProt P08246); test: Neutrophil elastase inhibitory activity in human plasma; assay type: biochemical; settings: human plasma from zymosan-stimulated blood
[2] = Drug transport across human Caco-2 cells; assay type: in vitro ADME; settings: apparent permeability coefficient, Caco-2 monolayers, pH 7.2, 37° C.; for Papp A→B at 10 µM: apical-to-basal (absorptive), read-out: PEAB; for Papp B→A at 10 µM: basal-to-apical (secretory), read-out: PEBA
Text: Assay for Determination of Drug Transport Across Human Caco-2 Cells
The assay provides information on the potential of a compound to pass the cell membrane, on the extent of oral absorption as well as on whether the compound is actively transported by uptake and/or efflux transporters. For the measurement of permeability across polarized, confluent human cancer colon carcinoma cells 2 (Caco-2) cell monolayers grown on permeable filter supports are used as the in vitro absorption model.
Apparent permeability coefficients (PE) of the compounds across the Caco-2 monolayers are measured (pH 7.2, 37° C.) in apical-to-basal (AB) (absorptive) and basal-to-apical (BA) (secretory) transport direction. AB permeability (PEAB) represents drug absorption from the intestine into the blood and BA permeability (PEBA) drug secretion from the blood back into the intestine via both passive permeability as well as active transport mechanisms mediated by efflux and uptake transporters that are expressed on the Caco-2 cells. The compounds are assigned to permeability/absorption classes by comparison of the AB permeabilities with the AB permeabilities of reference compounds with known in vitro permeability and oral absorption in the human. Identical or similar permeabilities in both transport directions indicate passive permeation, vectorial permeability points to additional active transport mechanisms. […] Active transport is concentration-dependently saturable.
Caco-2 cells (1-2*10^5 cells/cm^2 area) are seeded on filter inserts (Costar transwell polycarbonate or PET filters, 0.4 μm pore size) and cultured (DMEM) for 10 to 25 days. Compounds are dissolved in appropriate solvent (like DMSO, […] stock solutions). Stock solutions are diluted with HTP-4 buffer (128.13 mM NaCl, 5.36 mM KCl, 1 mM MgSO4, 1.8 mM CaCl2, 4.17 mM NaHCO3, 1.19 mM Na2HPO4x7H2O, 0.41 mM NaH2PO4xH2O, 15 mM HEPES, 20 mM glucose, pH 7.2) to prepare the transport solutions (typically 10 μM compound, final DMSO<=0.5%). The transport solution (TL) is applied to the apical or basolateral donor side for measuring A-B or B-A permeability (3 filter replicates), respectively. The receiver side contains HTP-4 buffer supplemented with 2% BSA. Samples are collected at the start and end of experiment from the donor and at various time intervals for up to 2 hours also from the receiver side for concentration measurement by LC-MS/MS or scintillation counting. Sampled receiver volumes are replaced with fresh receiver solution.
The apparent permeability coefficients (PEAB and PEBA) of selected compounds in the Caco-2 drug transport assay described above are listed in Table 16.

human hepatocytes = test: Metabolic stability with human hepatocytes; assay type: in vitro ADME; settings: 1 μM test compound, well stirred model
Description: Assay for the Determination of Metabolic Stability with Human Hepatocytes
The metabolic degradation of the test compound is assayed in a human hepatocyte suspension. Human hepatocytes (typically cryopreserved) are incubated in an appropriate buffer system (e.g. Dulbecco's modified eagle medium plus 3.5 μg glucagon/500 mL, 2.5 mg insulin/500 mL and 3.75 mg/500 mL hydrocortison) containing 5% species serum. Following a (typically) […] preincubation in an incubator (37° C., 10% CO2), 5 μl of test compound solution (80 μM; from […] stock solution in DMSO diluted 1:25 with medium) are added into 395 μl hepatocyte suspension (cell density in the range 0.25-5*10^6 cells/mL, typically 1*10^6 cells/mL; final concentration of test compound 1 μM, final DMSO concentration 0.05%). The cells are incubated for six hours (incubator, orbital shaker) and samples (25 μl) are taken at 0, 0.5, 1, 2, 4 and 6 hours. Samples are transferred into acetonitrile and pelleted by centrifugation (5 min) The supernatant is transferred to a new 96-deepwell plate, evaporated under nitrogen and resuspended. The decline of parent compound is analyzed by LC-MS/MS.
The intrinsic clearance CL_[…] is calculated as follows: CL_[…]=Dose/AUC=(C0/CD)/(AUD+clast/k)*1,000/60
(C0: initial concentration in the incubation [μM], CD: cell density of vital cells [10^6 cells/mL], AUD: area under the data [μM*h], clast: concentration of last data point [μM], k: slope of the regression line for parent decline [h^−1])
The calculated in vitro hepatic intrinsic clearance Qh can be scaled up to the intrinsic in vivo hepatic clearance and used to predict hepatic in vivo blood clearance (CL) by the use of a liver model (well stirred model): CL_[…]_INVIVO [ml/min/kg]=(CL_[…] [μL/min/10^6 cells]*hepatocellularity [10^6 cells/g liver]*liver factor [g/kg bodyweight])/1,000 CL [ml/min/kg]=CL_[…]_INVIVO [ml/min/kg]*hepatic blood flow [ml/min/kg]/(CL_[…]_INVIVO [ml/min/kg]+hepatic blood flow [ml/min/kg]) Qh [%]=CL [ml/min/kg]/hepatic blood flow [ml/min/kg])
(Hepatocellularity, human: 120*10^6 cells/g liver; liver factor, human: 25.7 g/kg bodyweight; blood flow, human: 21 ml/(min*kg))
The calculated in-vitro hepatic intrinsic clearance values of selected compounds in the metabolic stability assay with human hepatocytes described above are listed in Table 15.

[3] = Aqueous solubility (Shaked Flask Method); assay type: physicochemical; settings: aqueous buffer, thermodynamic from solid, pH 6.8
Description: Assay for Determination of Aqueous Solubility (“Shaked Flask Method”)
Saturated solutions are prepared in well plates by adding an appropriate volume of selected aqueous media (typically in the range of 0.25-1.5 ml) into each well which contains a known quantity of solid drug substance (typically in the range 0.5-5.0 mg). The wells are shaken or stirred for a predefined time period (typically in a range of 2-24 h) and then filtered using appropriate filter membranes (typically PTFE-filters with 0.45 μm pore size). Filter absorption is avoided by discarding the first few drops of filtrate. The amount of dissolved drug substance is determined by UV spectroscopy or by HPLC with UV-detection. In addition, the pH of the aqueous saturated solution is measured using a glass-electrode pH meter.

[4] = Aqueous solubility (High Throughput Method); assay type: physicochemical; settings: McIlvaine buffer pH 6.8 with 2.5% DMSO, kinetic from dmso stock, McIlvaine buffer pH 6.8, 2.5% DMSO, 24 h shaking
Description: Assay for Determination of Aqueous Solubility (“High Throughput Method”)
Starting from a […] DMSO stock solution, aliquots are diluted with acetonitrile/water (1/1) and McIlvaine buffer pH 6.8, respectively. After 24 h of shaking, the solutions or suspensions are filtered and analyzed by LC-UV. The amount dissolved in buffer is compared to the amount dissolved in the acetonitrile/water (1/1) solution. Solubility is measured from 0.001 to 0.125 mg/ml at a DMSO concentration of 2.5%. If more than 90% of the compound is dissolved in buffer, the value is marked with “>”.

[5] = Metabolic stability with human liver microsomes; assay type: in vitro ADME; settings: pH 7.6; pooled human liver microsomes, 1 μM test compound, 37° C.; read-out: t1/2 INVITRO
[6] = biological target: Human neutrophil elastase (Homo sapiens (Human), UniProt P08246); test: Human Neutrophil Elastase Assay; assay type: biochemical; settings: substrate MeOSuc-Ala-Ala-Pro-Val-AMC 250 μM, pH 7.5
Human neutrophil elastase, sequence (P08246 30-247): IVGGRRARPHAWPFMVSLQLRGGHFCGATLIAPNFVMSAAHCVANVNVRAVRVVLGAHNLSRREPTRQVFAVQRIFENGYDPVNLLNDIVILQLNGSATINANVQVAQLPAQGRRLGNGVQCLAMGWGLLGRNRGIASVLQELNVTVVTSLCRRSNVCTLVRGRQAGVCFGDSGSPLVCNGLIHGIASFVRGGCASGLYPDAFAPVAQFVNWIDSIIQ

neutrophil elastase in zymosan-stimulated human plasma, sequence (P08246 30-247): as above

Row | EC50 [1] [nM] | Papp A→B at 10 µM [2] [×10⁻⁶ cm/s] | Papp B→A at 10 µM [2] [×10⁻⁶ cm/s] | Qh (human hepatocytes) [%] | solubility [3] [µg/mL] | solubility at 24 h [4] [µg/mL] | half-life at 1 μM [5] [h] | IC50 [6] [nM] | SMILES
1 | 2 | 52 | 67 | 23 | > 10 | 50 (≈ 102 µM) | > 2.17 | 1.3 | CN1C(=O)N(c2cccc(C(F)(F)F)c2)C2=C(C(=O)CC2)C1c1ccc(C#N)cc1-c1cncnc1 (stereo not shown) [Example 21]
2 | 6 | 52 | 77 | 12 | > 10 | 83 (≈ 170 µM) | > 2.17 | 3.8 | CN1C(=O)N(c2cccc(C(F)(F)F)c2)C2=C(C(=O)CC2)C1c1ccc(C#N)cc1-c1ccncn1 (stereo not shown) [Example 22, 4-[3-Methyl-2,5-dioxo-1-(3-trifluoromethyl-phenyl)-2,3,4,5,6,7-hexahydro-1H-cyclopentapyrimidin-4-yl]-3-pyrimidin-4-yl-benzonitrile]
